Data set [1] concerns the target T1, hDAT (Homo sapiens, UniProt Q01959). Nature of the data set: PDSP screen: [^3H]24 binding at hDAT. The conditions noted are these: for inhibition at 10 µM: read-out: hDAT Binding Inhibition, % of control; for remaining activity at 10 µM: read-out: hDAT Binding Enhancement, % of control.
Data set [2] has as its system mouse chronic constriction injury (CCI) model of neuropathic pain. Nature of the data set: mouse chronic constriction injury. The class given is in vivo. Conditions: 3 μmol/kg, p.o.; 7 d post-injury.
For data set [3], the target named is T1, hDAT. Conditions: read-out: Kd of [^125I]23 at hDAT; no modulator; cited from earlier work.
In the next data set the target is mDAT (Mus musculus, UniProt Q61327). Nature of the data set: [^125I]23 binding to mDAT expressed in HEK-293 cells.
Sequence of mDAT (Q61327 whole entry): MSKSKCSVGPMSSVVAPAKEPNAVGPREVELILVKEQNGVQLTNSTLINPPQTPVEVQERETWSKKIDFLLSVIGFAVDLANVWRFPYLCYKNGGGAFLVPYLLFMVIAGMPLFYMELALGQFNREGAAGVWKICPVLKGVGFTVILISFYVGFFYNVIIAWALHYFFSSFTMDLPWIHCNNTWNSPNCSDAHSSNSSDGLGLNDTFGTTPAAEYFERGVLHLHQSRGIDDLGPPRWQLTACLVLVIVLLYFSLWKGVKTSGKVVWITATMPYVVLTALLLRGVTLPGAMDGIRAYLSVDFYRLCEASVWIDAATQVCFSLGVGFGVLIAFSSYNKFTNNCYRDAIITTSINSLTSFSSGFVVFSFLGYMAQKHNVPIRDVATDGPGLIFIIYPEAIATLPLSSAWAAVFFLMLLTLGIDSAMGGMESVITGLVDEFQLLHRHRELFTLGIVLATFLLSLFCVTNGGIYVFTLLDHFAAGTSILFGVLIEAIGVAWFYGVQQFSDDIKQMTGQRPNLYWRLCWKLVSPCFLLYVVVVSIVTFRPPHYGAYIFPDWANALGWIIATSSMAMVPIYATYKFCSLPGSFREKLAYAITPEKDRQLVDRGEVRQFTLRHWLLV
Another data set concerns the target T2, mA3AR (Mus musculus, UniProt Q61618).
T2 sequence (Q61618 1-319): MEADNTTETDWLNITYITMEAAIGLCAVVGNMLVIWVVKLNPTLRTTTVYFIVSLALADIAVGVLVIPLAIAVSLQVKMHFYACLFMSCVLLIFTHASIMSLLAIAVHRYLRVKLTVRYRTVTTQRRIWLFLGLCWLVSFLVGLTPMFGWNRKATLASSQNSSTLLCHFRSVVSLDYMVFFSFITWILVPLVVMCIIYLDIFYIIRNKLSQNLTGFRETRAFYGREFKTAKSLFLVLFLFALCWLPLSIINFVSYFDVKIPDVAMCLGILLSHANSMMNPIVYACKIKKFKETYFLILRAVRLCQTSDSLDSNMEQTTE
Kind of data set: A3AR radioligand. Format: binding. Conditions: for A3AR Binding % at 10 μM (m): mouse, % inhibition at 10 μM, radioligand [^125I]25.

In data set [4] the target is T1, hDAT. Conditions: 10 μM; [^3H]24 binding, PDSP; ref Janowsky et al.[3]; cited from earlier work.
In a further data set the target is hNET (Homo sapiens, UniProt P23975). Kind of data set: [^125I]23 binding to HEK-hNET membranes. Conditions: maximal enhancement.
Sequence of hNET (P23975 whole entry): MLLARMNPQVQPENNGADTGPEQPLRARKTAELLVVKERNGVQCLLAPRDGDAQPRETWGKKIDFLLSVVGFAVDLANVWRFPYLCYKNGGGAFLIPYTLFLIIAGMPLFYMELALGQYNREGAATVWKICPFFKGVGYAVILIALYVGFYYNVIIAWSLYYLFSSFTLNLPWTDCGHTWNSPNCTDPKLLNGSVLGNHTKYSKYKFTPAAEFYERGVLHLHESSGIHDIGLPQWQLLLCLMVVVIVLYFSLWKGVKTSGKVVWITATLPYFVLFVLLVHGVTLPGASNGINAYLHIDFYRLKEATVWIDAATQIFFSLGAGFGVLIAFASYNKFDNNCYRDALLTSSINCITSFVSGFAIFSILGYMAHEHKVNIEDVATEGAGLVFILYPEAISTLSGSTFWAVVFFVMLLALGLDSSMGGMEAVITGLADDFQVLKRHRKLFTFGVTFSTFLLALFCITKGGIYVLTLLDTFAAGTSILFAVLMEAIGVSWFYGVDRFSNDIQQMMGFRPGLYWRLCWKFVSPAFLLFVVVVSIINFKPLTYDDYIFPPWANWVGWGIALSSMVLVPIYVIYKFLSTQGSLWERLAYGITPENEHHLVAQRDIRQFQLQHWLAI
The target of data set [5] is T1, hDAT. Kind of data set: [^125I]23 binding to HEK-hDAT membranes. Conditions: maximal enhancement.
The target in data set [6] is T1, hDAT. Nature of the data set: [^3H]26 binding to HEK-hDAT membranes.
The subject of data set [7] is cytochrome P450 (5 isozymes). Conditions: cited from earlier work.
A further data set relates to mouse. The conditions noted are these: cited from earlier work.
For data set [8] the following is noted: cited from earlier work.
For data set [9] the following is noted: metabolomic study; cited from earlier work.

Read-outs that look alike come from different tables or passages of the source.

T1 sequence (Q01959 whole entry): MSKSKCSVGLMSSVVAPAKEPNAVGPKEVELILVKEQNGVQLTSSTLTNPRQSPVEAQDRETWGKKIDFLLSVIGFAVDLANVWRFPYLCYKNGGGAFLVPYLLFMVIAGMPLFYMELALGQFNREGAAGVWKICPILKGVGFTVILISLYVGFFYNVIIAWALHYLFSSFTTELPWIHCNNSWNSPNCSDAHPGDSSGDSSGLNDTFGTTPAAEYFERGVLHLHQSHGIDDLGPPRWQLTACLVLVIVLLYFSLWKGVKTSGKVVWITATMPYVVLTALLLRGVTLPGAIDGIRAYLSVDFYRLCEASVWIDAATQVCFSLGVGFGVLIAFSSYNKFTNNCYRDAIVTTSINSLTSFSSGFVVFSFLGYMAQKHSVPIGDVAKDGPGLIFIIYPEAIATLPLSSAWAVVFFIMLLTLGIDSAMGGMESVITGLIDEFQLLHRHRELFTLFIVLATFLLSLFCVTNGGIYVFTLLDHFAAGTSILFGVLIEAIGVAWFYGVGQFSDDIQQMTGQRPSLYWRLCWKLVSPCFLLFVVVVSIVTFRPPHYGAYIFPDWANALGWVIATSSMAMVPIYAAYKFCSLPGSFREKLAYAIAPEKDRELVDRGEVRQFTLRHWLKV

In general, inhibition refers to the relative decrease from the control value, in per cent. On to `CNC(=O)[C@H]1O[C@@H](n2cnc3c(NC)nc(C#Cc4ccc(Cl)s4)nc32)[C@H](O)[C@@H]1O` [compound 27, (2S,3S,4R,5R)-5-(2-((5-Chlorothiophen-2-yl)ethynyl)-6-(methylamino)-9H-purin-9-yl)-3,4-dihydroxy-N-methyltetrahydrofuran-2-carboxamide], for which the inhibition at 10 µM at hDAT [1] is below -20%. In addition, in data set [2], the “efficacy in increasing paw withdrawal threshold (PWT)” value is given as “fully efficacious”.

What is called Kd is the constant that tells how readily two partners part at equilibrium. Turning to `COC(=O)[C@H]1[C@@H](c2ccc(I)cc2)CC2CC[C@H]1N2C` [compound 23, methyl (1R,2S,3S)-3-(4-iodophenyl)-8-methyl-8-azabicyclo[3.2.1]octane-2-carboxylate], the equilibrium dissociation constant (Kd) at hDAT [3] was 1.3 nM; on mDAT, 3.9 nM.

Turning to `CNC(=O)[C@@]12C[C@@H]1[C@@H](n1cnc3c(NC)nc(C#Cc4ccc(Cl)s4)cc31)[C@H](O)[C@@H]2O` [compound 6, (1S,2R,3S,4R,5S)-4-(6-((5-Chlorothiophen-2-yl)ethynyl)-4-(methylamino)-1H-imidazo[4,5-c]pyridin-1-yl)-2,3-dihydroxy-N-methylbicyclo[3.1.0]hexane-1-carboxamide], at mA3AR, the “A3AR Binding % at 10 μM (m)” value is given as below 50%. Besides, the inhibition at 10 µM at hDAT [1] was below -20%.

As for `CNC(=O)[C@@]12C[C@@H]1[C@@H](n1cnc3c(NC)nc(C#Cc4ccc(Br)s4)nc31)[C@H](O)[C@@H]2O` [compound 2], the “hDAT Binding Inhibition, % of control” value at hDAT [4] is on record as “NE (no effect)”.

Take `CNC(=O)[C@@]12C[C@@H]1[C@@H](n1cnc3c(NC)nc(C#Cc4ccc(F)c(F)c4)nc31)[C@H](O)[C@@H]2O` [compound 3]: the “hDAT Binding Inhibition, % of control” value on hDAT [4] is given as “NE (no effect)”.

What is called Ki is a measure of affinity in units of concentration, obtained from inhibition or displacement. A low value points to higher affinity. With `CNc1nc(C#Cc2ccc(Cl)s2)nc2c1ncn2[C@H]1[C@H](O)[C@H](O)[C@]2(C(=O)OC)C[C@H]12` [compound 9, Methyl (1S,2R,3S,4R,5S)-4-(2-((5-chlorothiophen-2-yl)ethynyl)-6-(methylamino)-9H-purin-9-yl)-2,3-dihydroxybicyclo[3.1.0]hexane-1-carboxylate], the “hNET [^125I]23 binding, % control binding” value at hNET was around 370%. The “hDAT [^125I]23 binding, % control binding” value on hDAT [5] is given as around 450%. For the same compound, on mA3AR, the inhibitory constant (Ki) is above 10000 nM and the “A3AR Binding % at 10 μM (m)” value is on record as below 50%. In addition, at hDAT [1], the remaining activity at 10 µM turned out to be 391% and the inhibition at 10 µM was below -20%.

Regarding `CCCNc1nc(C#Cc2ccc(Cl)s2)nc2c1ncn2[C@@H]1O[C@H](C(=O)NC)[C@@H](O)[C@H]1O` [compound 28, (2S,3S,4R,5R)-5-(2-((5-Chlorothiophen-2-yl)ethynyl)-6-(n-propylamino)-9H-purin-9-yl)-3,4-dihydroxy-N-methyltetrahydrofuran-2-carboxamide], the inhibition at 10 µM on hDAT [1] is below -20%. Moreover, in data set [2], the “efficacy in increasing paw withdrawal threshold (PWT)” value is “fully efficacious”.

As to `CNc1nc(C#Cc2ccc(Cl)s2)nc2c1ncn2[C@H]1[C@H](O)[C@H](O)[C@]2(C(=O)NCCN)C[C@H]12` [compound 8, (1S,2R,3S,4R,5S)-N-(2-Aminoethyl)-4-(2-((5-chlorothiophen-2-yl)ethynyl)-6-(methylamino)-9H-purin-9-yl)-2,3-dihydroxybicyclo[3.1.0]hexane-1-carboxamide], at hDAT [1], the remaining activity at 10 µM came out at 133% and the inhibition at 10 µM is below -20%.

With `CCCNc1nc(C#Cc2ccc(Cl)s2)nc2c1ncn2[C@H]1[C@H](O)[C@H](O)[C@]2(C(=O)NC)C[C@H]12` [compound 7], at hDAT [4], the “hDAT Binding Inhibition, % of control” value is listed as “NE (no effect)”. Besides, the “fold greater mA3AR affinity compared to ribose 5′-amide 28” value at mA3AR amounted to 88 fold.

As for `CNc1nc(C#Cc2ccc(Cl)s2)nc2c1ncn2[C@@H]1O[C@H](C(=O)OC)[C@@H](O)[C@H]1O` [compound 29, Methyl (2S,3S,4R,5R)-5-(2-((5-Chlorothiophen-2-yl)ethynyl)-6-(methylamino)-9H-purin-9-yl)-3,4-dihydroxytetrahydrofuran-2-carboxylate], on hDAT [6], the “fold higher EC50 than 9 for enhancement of [^3H]26 binding at hDAT” value was 7 fold. The inhibition at 10 µM on hDAT [1] was below -20%.

Take `CCOC(=O)[C@@]12C[C@@H]1[C@@H](n1cnc3c(NC)nc(C#Cc4ccc(Cl)s4)nc31)[C@H](O)[C@@H]2O` [compound 10, Ethyl (1S,2R,3S,4R,5S)-4-(2-((5-chlorothiophen-2-yl)ethynyl)-6-(methylamino)-9H-purin-9-yl)-2,3-dihydroxybicyclo[3.1.0]hexane-1-carboxylate]: the “hNET [^125I]23 binding, % control binding” value on hNET is around 370%. Also, the “A3AR Binding % at 10 μM (m)” value on mA3AR is below 50%. In addition, the inhibition at 10 µM on hDAT [1] is below -20%.

On to `CNc1nc(C#Cc2ccc(Cl)s2)nc2c1ncn2[C@H]1[C@H](O)[C@H](O)[C@]2(C(=O)OCCC(C)C)C[C@H]12` [compound 17, Isopentyl (1S,2R,3S,4R,5S)-4-(2-((5-chlorothiophen-2-yl)ethynyl)-6-(methylamino)-9H-purin-9-yl)-2,3-dihydroxybicyclo[3.1.0]hexane-1-carboxylate], for which the inhibition at 10 µM at hDAT [1] was below -20%.

In the case of `CCNc1cc(C#Cc2ccc(Cl)s2)nc2c1ncn2[C@H]1[C@H](O)[C@H](O)[C@]2(C(=O)NC)C[C@H]12` [5b], the inhibition at 10 µM on hDAT [1] was -20 to 20%.

In the case of `CNc1nc(C#Cc2ccc(Cl)s2)nc2c1ncn2[C@H]1[C@H](O)[C@H](O)[C@]2(C(=O)O)C[C@H]12` [compound 22, (1S,2R,3S,4R,5S)-4-(2-((5-Chlorothiophen-2-yl)ethynyl)-6-(methylamino)-9H-purin-9-yl)-2,3-dihydroxybicyclo[3.1.0]hexane-1-carboxylic acid], the inhibition at 10 µM on hDAT [1] is below -20%.

With `CNC(=O)[C@@]12C[C@@H]1[C@@H](n1cnc3c(NC)nc(C#Cc4ccc(Cl)s4)nc31)[C@H](O)[C@@H]2O` [compound 1, (1S,2R,3S,4R,5S)-4-(2-((5-chlorothiophen-2-yl)ethynyl)-6-(methylamino)-9H-purin-9-yl)-2,3-dihydroxy-N-methylbicyclo[3.1.0]hexane-1-carboxamide], the “hDAT Binding Inhibition, % of control” value on hDAT [4] is “NE (no effect)”. Moreover, in [7], the “inhibition of cytochrome P450 (5 isozymes)” value is given as “do not inhibit”. In addition, the values for the locomotor activity entry with mouse (10 mg/kg) and in the data set with mouse (30 mg/kg) were “did not significantly stimulate locomotor activity” and “reduced locomotor activity”, respectively. Also, the “stability in the presence of liver microsomes, plasma and simulated body fluids” value in data set [8] was “stable”. Besides, the tolerability in vivo result in data set [9] is listed as “well tolerated”.

The values above are taken from PMC5501184 (Journal of medicinal chemistry, 2017).
